Assay results taken from patent publication US10220021B2, “Methods for treating and preventing ocular diseases, disorders, and conditions with melanin and melanin analogs, precursors, and derivatives” (priority 2014, dated 2019).
Where two headings read alike, the source gives them in different places.

Columns and labels:
[1] = system: cornea of the right eye of a Wistar rat; settings: cited from earlier work; for Observation in Treated Eye: Angiogenesis / Observation in Treated Eye: Corneal Keratoconus / Observation in Treated Eye: No Change: 10 μL topically once, 5 rats treated, one week
[2] = system: leukoplakia and hyperemia of the eye; test: Topical treatment of leukoplakia and hyperemia of the eye in a patient; type: in vivo, human; settings: topical cortisone drops, two months, right eye
Source text: The leukoplakia was hypothesized to be the result of excessive sun exposure and chemicals. The patient was initially treated with topical cortisone drops, and the cortisone treatment continued for two months.
One month subsequent to stopping cortisone treatment, the patient underwent treatment with a 3% aqueous solution of melanin (w/v) that was topically applied in the form of eye drops. The aqueous solution was produced by mixing water and chemically synthesized melanin (synthetic melanin). […] Three to four drops (about 50 μL per drop) of the 3% aqueous melanin solution were administered for each application, and the solution was applied four times per day at approximately six hour intervals. […] The same dosing regimen was used over the entire course of the treatment.

[3] = system: eyes of healthy rats; settings: rat, in vivo
Procedure: The effect of subconjunctival injection of melanin into the eyes of healthy rats was tested. Rats were put under general anesthesia by intraperitoneal injection of barbiturates. A total of five rats were used in the study. Then, 500 μL of a 3% aqueous melanin solution was administered to the right eye of each of the rats by subconjunctival injection. The left eye was left untreated.

[4] = system: hyphema in rabbits; settings: rabbit, in vivo; cited from earlier work

Compound: Oc1ccccc1 [Phenol, phenol]
- formation of new blood vessels in the cornea ([1]; all concentrations of phenol tested (0.1 M to 8.5 M), at least one rat in each group, one week after application): new blood vessels began to form in the cornea
- changes associated with corneal ectasia, particularly corneal keratoconus ([1]; higher concentrations of phenol (e.g., 3.0 M, 5.6 M, and 8.5 M)): observed in some of the rats
- Observation in Treated Eye: Angiogenesis ([1]; phenol 0.1M): 1 Number of Rats
- Observation in Treated Eye: Corneal Keratoconus ([1]; phenol 0.1M): 0 Number of Rats
- Observation in Treated Eye: No Change ([1]; phenol 0.1M): 4 Number of Rats
- Observation in Treated Eye: Angiogenesis ([1]; phenol 0.5M): 1 Number of Rats
- Observation in Treated Eye: Corneal Keratoconus ([1]; phenol 0.5M): 0 Number of Rats
- Observation in Treated Eye: No Change ([1]; phenol 0.5M): 4 Number of Rats
- Observation in Treated Eye: Angiogenesis ([1]; phenol 1.0M): 3 Number of Rats
- Observation in Treated Eye: Corneal Keratoconus ([1]; phenol 1.0M): 0 Number of Rats
- Observation in Treated Eye: No Change ([1]; phenol 1.0M): 2 Number of Rats
- Observation in Treated Eye: Angiogenesis ([1]; phenol 3.0M): 4 Number of Rats
- Observation in Treated Eye: Corneal Keratoconus ([1]; phenol 3.0M): 2 Number of Rats
- Observation in Treated Eye: No Change ([1]; phenol 3.0M): 1 Number of Rats
- Observation in Treated Eye: Angiogenesis ([1]; phenol 6.5M): 4 Number of Rats
- Observation in Treated Eye: Corneal Keratoconus ([1]; phenol 6.5M): 2 Number of Rats
- Observation in Treated Eye: No Change ([1]; phenol 6.5M): 1 Number of Rats
- Observation in Treated Eye: Angiogenesis ([1]; phenol 8.5M): 3 Number of Rats
- Observation in Treated Eye: Corneal Keratoconus ([1]; phenol 8.5M): 1 Number of Rats
- Observation in Treated Eye: No Change ([1]; phenol 8.5M): 2 Number of Rats

Compound: C[C@]12CCC(=O)C=C1CC[C@@H]1[C@@H]2C(=O)C[C@@]2(C)[C@H]1CC[C@]2(O)C(=O)CO [cortisone]
- improvement of leukoplakia and hyperemia [2]: no improvement

Compound: melanin
- appearance of treated eyes immediately after injection [3]: increase in size and some distortion
- visible marks on the ocular tissue at the injection site [3]: no visible marks
- visible signs of inflammation, irritation, or subconjunctival bleeding [3]: nor were any visible signs of inflammation, irritation, or subconjunctival bleeding observed
- incidence of rebleeds [4]: increase
